In patent US10375956B2, “Herbicidally active 2-(substituted-phenyl)-cyclopentane-1,3-dione compounds and derivatives thereof” (Syngenta Limited, priority 2013, dated 2019) one finds pest or weed control data, which are given here for eleven molecules.

Common to all, as to assay: Test 2 glasshouse assay (IF50 formulation, X-77), post-emergence herbicidal activity
Holding throughout (type): in vivo

Assay [1] concerns Sorghum vulgare Pers. (SORVU). The note with it: Sorghum bicolor, 360 h, 15 DAA, visual score, read-out: Post-emergence herbicidal activity (percentage phytotoxicity) SORVU; for pest or weed control at 125 g/ha: application rate 125 g/ha; for pest or weed control at 250 g/ha: application rate 250 g/ha; for pest or weed control at 30 g/ha: application rate 30 g/ha. The method, then:
(§1) Seeds of a variety of monocotyledonous and dicotyledonous test plants are sown in standard soil in pots. The plants are cultivated for one day (for pre-emergence) or for about 12 days (for post-emergence) under controlled conditions in a glasshouse (warm climate species at 24/18° C., cool climate species at 20/16° C., both at day/night; 16 hours light; 65% humidity).
(§2) An “instant formulation”, known as the “IF50”, containing 50 g/liter (i.e. 5% w/v) of the “technical” (i.e. unformulated) active ingredient is prepared by dissolving the active ingredient in a mixture of organic solvents and emulsifier, details of which are provided in the Table below. This IF50 is then mixed with a small, variable amount of acetone to aid dissolution, before addition of a 0.2% v/v aqueous solution of the adjuvant X-77 (which is a mixture of alkyl aryl polyoxyethylene glycols and free fatty acids in isopropanol, CAS Registry number 11097-66-8), as the aqueous diluent, to form an aqueous spray solution which contains a predetermined concentration of the active ingredient (which varies depending on the application rate of the active ingredient to the plants) and 0.2% v/v of the adjuvant X-77. This aqueous spray solution is then sprayed onto the plants, after one day's cultivation (for pre-emergence), or after about 12 days' cultivation (range=10-13 days) (for post-emergence).
(§3) The test plants are then grown on, in a glasshouse (greenhouse) under controlled conditions (warm climate species at 24/18° C., cool climate species at 20/16° C., both at day/night; 16 hours light; 65% humidity) and are watered twice daily. 15 days after application of the test herbicide (15DAA) (for post-emergence), and 20 days after application of the test herbicide (20DAA) (for pre-emergence), the test plants are evaluated visually, and an assessed percentage phytotoxicity score is given for each herbicidal application on each plant species (with 100%=total damage to plant; 0%=no damage to plant).
(§4) Warm climate (“warm season”) grassy monocotyledonous weeds: Setaria faberi (SETFA), Panicum miliaceum (PANMI), Sorghum vulgare Pers. (SORVU) (or Sorghum bicolor (L) Moench ssp. Bicolor), Digitaria sanguinalis (DIGSA), Echinochloa crus-galli (ECHCG), and Brachiaria plantaginea (BRAPL).

The subject of assay [2] is Panicum miliaceum (PANMI). The note with it: 360 h, 15 DAA, visual score, read-out: Post-emergence herbicidal activity (percentage phytotoxicity) PANMI; for pest or weed control at 125 g/ha: application rate 125 g/ha; for pest or weed control at 250 g/ha: application rate 250 g/ha; for pest or weed control at 30 g/ha: application rate 30 g/ha. The method, then: as §1, §2, §3, §4

Assay [3] concerns Digitaria sanguinalis (DIGSA). As to conditions: 360 h, 15 DAA, visual score, read-out: Post-emergence herbicidal activity (percentage phytotoxicity) DIGSA; for pest or weed control at 125 g/ha: application rate 125 g/ha; for pest or weed control at 250 g/ha: application rate 250 g/ha; for pest or weed control at 30 g/ha: application rate 30 g/ha. The method, then: as §1, §2, §3, §4

For assay [4], the system named is Echinochloa crus-galli (ECHCG). As to conditions: 360 h, 15 DAA, visual score, read-out: Post-emergence herbicidal activity (percentage phytotoxicity) ECHCG; for pest or weed control at 125 g/ha: application rate 125 g/ha; for pest or weed control at 250 g/ha: application rate 250 g/ha; for pest or weed control at 30 g/ha: application rate 30 g/ha. The method, then:
as §1, §2, §3, §4

The test system of a further assay is Setaria faberi (SETFA). As to conditions: 360 h, 15 DAA, visual score, read-out: Post-emergence herbicidal activity (percentage phytotoxicity) SETFA; for pest or weed control at 125 g/ha: application rate 125 g/ha; for pest or weed control at 250 g/ha: application rate 250 g/ha; for pest or weed control at 30 g/ha: application rate 30 g/ha. How it is done: as §1, §2, §3, §4

Assay [5] has as its system Brachiaria plantaginea (BRAPL). As to conditions: Urochloa plantaginea, 360 h, 15 DAA, visual score, read-out: Post-emergence herbicidal activity (percentage phytotoxicity) BRAPL; for pest or weed control at 30 g/ha: application rate 30 g/ha; for pest or weed control at 125 g/ha: application rate 125 g/ha. The method, then: as §1, §2, §3, §4

Each structure is given as a SMILES string.

In the case of `C#CCC1CC(=O)C(c2c(F)cc(-c3ccc(Cl)cc3)cc2Cl)C1=O` (centres unmarked) [Compound A6, 2-[2-chloro-4-(4-chlorophenyl)-6-fluorophenyl]-4-prop-2-ynylcyclopentane-1,3-dione], the pest or weed control at 125 g/ha (in assay [1]; in assay [2]; in assay [3]; in assay [4]; in the assay on Setaria faberi (SETFA)) was 100% each time. Also, the pest or weed control at 250 g/ha (in assay [1]; in assay [2]; in assay [3]; in assay [4]; in the assay on Setaria faberi (SETFA)) was 100% each time.

Take `C#CCC1CC(=O)C(c2c(F)cc(-c3ccc(Cl)cn3)cc2Cl)C1=O` (centres unmarked) [Compound A8]: the pest or weed control at 30 g/ha in assay [1] was 100%; in assay [2] it was 100%; in assay [3], 90%; in assay [4] it was 70%; in the assay with Setaria faberi (SETFA), 90%. The pest or weed control at 250 g/ha (in assay [1]; in assay [2]; in assay [3]; in assay [4]; in the assay on Setaria faberi (SETFA)) was 100% each time.

Take `C#CCC1CC(=O)C(c2c(C)cc(C)cc2C)C1=O` (centres unmarked) [Compound A23]: the pest or weed control at 125 g/ha in assay [1] turned out to be 90%; in assay [2], 100%; in assay [3], 100%; in assay [4], 100%; in the assay on Setaria faberi (SETFA), 80%.

Regarding `C#CCC1CC(=O)C(c2c(C)cc(-c3ccc(F)cc3)cc2C)C1=O` (centres unmarked) [Compound A1, 2-[4-(4-fluorophenyl)-2,6-dimethyl-phenyl]-4-prop-2-ynylcyclopentane-1,3-dione], the pest or weed control at 30 g/ha was 90% in assay [1]; 80% in assay [2]; 100% in assay [3]; 100% in assay [4]; 100% in assay [5]; 90% in the assay with Setaria faberi (SETFA). Also, the pest or weed control at 125 g/ha (in assay [1]; in assay [2]; in assay [3]; in assay [4]; in assay [5]; in the assay with Setaria faberi (SETFA)) was 100% each time.

With `C#CCC1CC(=O)C(c2cc(-c3ncc(Cl)cc3F)ccc2C)C1=O` (centres unmarked) [Compound A18], the pest or weed control at 250 g/ha was 70% in assay [1]; 60% in assay [2]; 50% in assay [3]; 90% in assay [4]; 70% in the assay with Setaria faberi (SETFA).

Regarding `C#CCC1CC(=O)C(c2cc(-c3ncc(Cl)cn3)ccc2C)C1=O` (centres unmarked) [Compound A19], the pest or weed control at 250 g/ha was 70% in assay [1]; 70% in assay [2]; 70% in assay [3]; 70% in assay [4]; 60% in the assay on Setaria faberi (SETFA).

Consider `C#CCC1CC(=O)C(c2c(Cl)cc(-c3ccc(Cl)cn3)cc2OC)C1=O` (centres unmarked) [Compound A10], for which the pest or weed control at 30 g/ha (in assay [1]; in assay [2]; in assay [3]; in assay [4]; in the assay on Setaria faberi (SETFA)) was 100% throughout. The pest or weed control at 250 g/ha (in assay [1]; in assay [2]; in assay [3]; in assay [4]; in the assay on Setaria faberi (SETFA)) was 100% in each case.

Consider `C#CCC1CC(=O)C(c2c(F)cc(-c3ccc(F)c(F)c3)cc2OC)C1=O` (centres unmarked) [Compound A22], for which the pest or weed control at 30 g/ha in assay [1] was determined as 70%; in assay [2] it was 60%; in assay [3] it was 70%; in assay [4], 70%; in assay [5] it was 90%; in the assay on Setaria faberi (SETFA), 80%. The pest or weed control at 125 g/ha (in assay [1]; in assay [2]; in assay [3]; in assay [4]; in assay [5]; in the assay on Setaria faberi (SETFA)) was 100% throughout.

Turning to `C#CCC1CC(=O)C(c2c(C)cc(-c3ncc(Cl)cc3F)cc2C)C1=O` (centres unmarked) [Compound A3], the pest or weed control at 30 g/ha in assay [1] came to 100%; in assay [2] it was 100%; in assay [3], 100%; in assay [4], 100%; in assay [5], 80%; with Setaria faberi (SETFA) it was 100%. Also, the pest or weed control at 250 g/ha (in assay [1]; in assay [2]; in assay [3]; in assay [4]; in assay [5] (application rate 250 g/ha); with Setaria faberi (SETFA)) was 100% in each case.

For the molecule `C#CCC1CC(=O)C(c2cc(-c3ccc(Cl)cc3Cl)ccc2C)C1=O` (centres unmarked) [Compound A15], the pest or weed control at 250 g/ha worked out at 40% in assay [1]; 70% in assay [2]; 30% in assay [3]; 70% in assay [4]; 30% in the assay on Setaria faberi (SETFA).

Regarding `C#CCC1CC(OC(C)=O)=C(c2c(C)cc(-c3ccc(F)cc3)cc2C)C1=O` (centres unmarked) [Compound A45], the pest or weed control at 30 g/ha in assay [1] amounted to 70%; in assay [2], 100%; in assay [3], 100%; in assay [4] it was 100%; in assay [5], 90%; with Setaria faberi (SETFA), 90%. Also, the pest or weed control at 125 g/ha (in assay [1]; in assay [2]; in assay [3]; in assay [4]; in assay [5]; with Setaria faberi (SETFA)) was 100% each time.
